Patent US7645764B2, “Kinase inhibitors and methods for using the same” (Roche Palo Alto LLC, priority 2006, dated 2010)
Each block holds one molecule with its values, some of them ahead of it.

Assays:
cloned human c-Raf = target: T1, cloned human c-Raf (Homo sapiens, UniProt P04049); assay: c-Raf HTRF assay with 6H-MEK as substrate (dose response); type: biochemical; conditions: 6H-MEK substrate
T1 construct: made in house; host or cells: High-5 (Hi5) insect cells, baculovirus, co-infected with FLAG-vSrc
Experimental: c-Raf HTRF Assay with 6H-MEK as Substrate (Dose Response)
This assay utilizes 6H-MEK as the substrate. Upon c-Raf phosphorylation, phosphorylated 6H-MEK is detected with rabbit anti-phospho-MEK1/2, Eu-labeled anti-rabbit, and APC-labeled anti-6H antibodies.
(§1) Procedure • (1) Prepare Kinase Assay Buffer (KAB): 50 mM HEPES (HyClone) pH7, 10 mM MgCl2, 1 mM DTT, 0.1 mM […], and 0.3 mg/ml BSA. • (2) Prepare 6H-MEK (150 nM) in KAB. Add 12 μl/well to the assay plate. • (3) Prepare ATP (66 μM) in KAB. • (4) Dilute compounds to 2.4 mM and any positive controls to 480 μM in DMSO. Perform 10-point 3× dilution in DMSO. […] For the cross talk factor sample, add 6 μl/well of Eu-anti rabbit IgG (9 nM). • (14) Incubate at room temperature for 1.5 hours. • (15) Read HTRF signals at 615 nm and 665 nm on the Envision. […]
N terminal EE-tagged c-Raf was expressed in High-5 cells. […] Protein concentration was determined by the BioRad DC method.

[1] = target: T2, recombinant human b-Raf residues 416-end containing a V600E mutation (Homo sapiens, UniProt P15056, V600E); assay: b-Raf V600E mutant HTRF assay with 6H-MEK as substrate (dose response); type: biochemical; conditions: 6H-MEK substrate
T2 construct: recombinant human b-Raf residues 416-end containing a V600E mutation; purchased Upstate 14-5M; host or cells: baculovirus in Sf21 insect cells
Experimental: b-Raf V600E Mutant HTRF Assay with 6H-MEK as Substrate (Dose Response)
This assay utilizes 6H-MEK as the substrate. Upon b-Raf V600E phosphorylation, phosphorylated 6H-MEK is detected with rabbit anti-phospho-MEK1/2, Eu-labeled anti-rabbit, and APC-labeled anti-6H antibodies.
as §1, with “Assay Procedure:” for “Procedure”, “and” for “and any”

[2] = target: T3, recombinant human b-Raf residues 416-end (wild type) (Homo sapiens, UniProt P15056); assay: b-Raf wild-type HTRF assay with 6H-MEK as substrate (dose response); type: biochemical; conditions: 6H-MEK substrate
T3 construct: recombinant human b-Raf residues 416-end with N-terminal GST-tag; purchased Upstate 14-530M; host or cells: baculovirus in Sf21 insect cells
Experimental: b-Raf Wild-Type HTRF Assay with 6H-MEK as Substrate (Dose Response)
This assay utilizes 6H-MEK as the substrate. Upon b-Raf WT phosphorylation, phosphorylated 6H-MEK is detected with rabbit anti-phospho-MEK1/2, Eu-labeled anti-rabbit, and APC-labeled anti-6H antibodies.
as §1, with “Assay Procedure:” for “Procedure”

p38 MAP kinase = target: T4, p38 MAP kinase (Homo sapiens, UniProt Q16539); assay: p38 MAP kinase in vitro assay (33P-ATP phosphate transfer to Myelin Basic Protein); type: biochemical
T4 construct: made in house; host or cells: E. coli (co-expressed with SEK-1 and MEKK)
Experimental: This example illustrates a p38 (MAP) kinase in vitro assay useful for evaluating the compounds of the invention.
The p38 MAP kinase inhibitory activity of compounds of this invention in vitro was determined by measuring the transfer of the γ-phosphate from γ-^33P-ATP by p-38 kinase to Myelin Basic Protein (MBP), using a minor modification of the method described in Ahn, et al., J. Biol. Chem. 266:4220-4227 (1991).
The phosphorylated form of the recombinant p38 MAP kinase was co-expressed with SEK-1 and MEKK in E. Coli (see, Khokhlatchev, et al., J. Biol. Chem. 272:11057-11062 (1997)) and then purified by affinity chromatography using a Nickel column.
The phosphorylated p38 MAP kinase was diluted in kinase buffer (20 mM 3-(N-morpholino)propanesulfonic acid, pH 7.2, 25 mM β-glycerol phosphate, 5 mM ethylene glycol-bis(beta-aminoethyl ether)-N,N,N′,N′-tetraacetic acid, 1 mM sodium ortho-vanadate, 1 mM dithiothreitol, 40 mM magnesium chloride). Test compound dissolved in DMSO or only DMSO (control) was added and the samples were incubated for 10 min at 30° C. The kinase reaction was initiated by the addition of a substrate cocktail containing MBP and γ-^33P-ATP. […] The phosphorylated MBP was then separated from the residual γ-^33P-ATP using a phosphocellulose membrane (Millipore, Bedfrod, Mass.) and quantitated using a scintillation counter (Packard, Meriden, Conn.).

T1 sequence (P04049 whole entry): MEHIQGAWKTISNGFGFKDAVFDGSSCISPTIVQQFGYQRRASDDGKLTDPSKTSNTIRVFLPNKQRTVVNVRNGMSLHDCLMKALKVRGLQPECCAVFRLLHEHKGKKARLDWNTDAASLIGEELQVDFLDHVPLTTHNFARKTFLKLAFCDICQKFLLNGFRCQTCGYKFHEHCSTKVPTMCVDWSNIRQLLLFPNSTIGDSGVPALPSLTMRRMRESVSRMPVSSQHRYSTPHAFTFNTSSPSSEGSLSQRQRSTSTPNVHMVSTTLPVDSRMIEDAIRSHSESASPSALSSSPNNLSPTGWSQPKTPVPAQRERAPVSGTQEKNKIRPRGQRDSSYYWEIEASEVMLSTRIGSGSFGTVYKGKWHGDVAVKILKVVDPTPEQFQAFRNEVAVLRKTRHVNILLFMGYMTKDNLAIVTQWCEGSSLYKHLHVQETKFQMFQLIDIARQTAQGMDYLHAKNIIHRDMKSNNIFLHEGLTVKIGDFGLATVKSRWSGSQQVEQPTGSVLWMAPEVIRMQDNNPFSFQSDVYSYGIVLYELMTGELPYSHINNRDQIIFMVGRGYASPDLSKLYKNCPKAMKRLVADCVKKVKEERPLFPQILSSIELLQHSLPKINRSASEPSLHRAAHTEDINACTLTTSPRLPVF
T2 sequence (P15056 416-766 V600E): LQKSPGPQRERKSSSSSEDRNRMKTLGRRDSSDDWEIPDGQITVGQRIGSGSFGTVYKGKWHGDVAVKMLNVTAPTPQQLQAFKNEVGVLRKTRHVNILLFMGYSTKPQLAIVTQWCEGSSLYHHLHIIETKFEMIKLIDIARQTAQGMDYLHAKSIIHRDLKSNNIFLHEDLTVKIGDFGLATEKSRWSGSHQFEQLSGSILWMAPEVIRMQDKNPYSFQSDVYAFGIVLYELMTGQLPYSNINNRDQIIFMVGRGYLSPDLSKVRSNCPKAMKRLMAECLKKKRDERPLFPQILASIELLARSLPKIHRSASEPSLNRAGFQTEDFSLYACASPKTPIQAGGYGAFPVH
T4 sequence (Q16539 whole entry): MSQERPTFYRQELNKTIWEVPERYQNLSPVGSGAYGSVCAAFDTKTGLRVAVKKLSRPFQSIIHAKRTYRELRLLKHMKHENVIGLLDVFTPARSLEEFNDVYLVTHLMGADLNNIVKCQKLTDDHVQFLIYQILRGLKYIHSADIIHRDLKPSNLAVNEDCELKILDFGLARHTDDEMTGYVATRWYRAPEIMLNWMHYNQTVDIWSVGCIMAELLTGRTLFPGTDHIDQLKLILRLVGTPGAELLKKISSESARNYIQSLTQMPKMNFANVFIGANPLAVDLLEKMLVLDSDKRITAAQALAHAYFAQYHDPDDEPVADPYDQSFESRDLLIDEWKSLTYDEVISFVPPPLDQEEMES
T3 sequence (P15056 416-766 limits assumed): as the sequence (P15056 416-766 V600E) above, with E185V counted along it

melting point: 253.5 to 254.1 °C
Structure (SMILES): Cc1ccc(C#N)cc1-c1cc2cnc(NC3CCOCC3)nc2n(C)c1=O [Compound 12, 4-Methyl-3-[8-methyl-7-oxo-2-(tetrahydro-pyran-4-ylamino)-7,8-dihydro-pyrido[2,3-d]pyrimidin-6-yl]-benzonitrile]

IC50 (p38 MAP kinase): ~0.66 nM
Structure (SMILES): Cc1ccc(-c2ncc[nH]2)cc1-c1cc2cnc(NC3CCOCC3)nc2n(C)c1=O [Compound 13, 6-[5-(1H-Imidazol-2-yl)-2-methyl-phenyl]-8-methyl-2-(tetrahydro-pyran-4-ylamino)-8H-pyrido[2,3-d]pyrimidin-7-one]

Second part, the molecule before the results:

Structure (SMILES): COC(=O)c1ccc(C)c(-c2cc3cnc(NC4CCOCC4)nc3n(C)c2=O)c1 [Compound 1, 4-Methyl-3-[8-methyl-7-oxo-2-(tetrahydro-pyran-4-ylamino)-7,8-dihydro-pyrido[2,3-d]pyrimidin-6-yl]-benzoic acid methyl ester]
melting point: 122.5 to 126.5 °C

Structure (SMILES): Cc1nnc(-c2ccc(C)c(-c3cc4cnc(NC5CCOCC5)nc4n(C)c3=O)c2)o1 [Compound 4, 8-Methyl-6-[2-methyl-5-(5-methyl-[1,3,4]oxadiazol-2-yl)-phenyl]-2-(tetrahydro-pyran-4-ylamino)-8H-pyrido[2,3-d]pyrimidin-7-one]
IC50 (cloned human c-Raf): ~190 nM

Structure (SMILES): CNC(=O)c1ccc(C)c(-c2cc3cnc(NC4CCOCC4)nc3n(C)c2=O)c1 [Compound 8, 4,N-Dimethyl-3-[8-methyl-7-oxo-2-(tetrahydro-pyran-4-ylamino)-7,8-dihydro-pyrido[2,3-d]pyrimidin-6-yl]-benzamide]
IC50 [1]: ~10 nM
IC50 [2]: ~20 nM

Structure (SMILES): Cc1ccc(-c2nnc[nH]2)cc1-c1cc2cnc(NC3CCOCC3)nc2n(C)c1=O [Compound 11, 8-Methyl-6-[2-methyl-5-(4H-[1,2,4]triazol-3-yl)-phenyl]-2-(tetrahydro-pyran-4-ylamino)-8H-pyrido[2,3-d]pyrimidin-7-one]
melting point: 214.9 to 216 °C
